Results: US6342515B1, “Remedy for neurodegenerative diseases” (Dainippon Pharmaceutical Co., Ltd., priority 1997, dated 2002)
Marks after values point to notes of the source that are not given here.

Experiments:
[1] = tested on: C57 black male mice; assay: Inhibitory effect on MPTP-induced dopaminergic neurodegeneration (striatal DA and DOPAC by HPLC); format: in vivo, mouse; conditions: for Inhibitory Rate (%) DA / Inhibitory Rate (%) DOPAC / DA (ng/g tissue) / DOPAC (ng/g tissue): striatum, 24 hours after last MPTP; for DA (ng/g tissue) / DOPAC (ng/g tissue): mean ± standard error; for inhibitory effect on the MPTP-induced reduction in the contents of dopamine and DOPAC in the striatum: po
Procedure: (§1) In each experiment, the contents of monoamine neurotransmitters and metabolites thereof in the striatum were measured by high performance liquid chromatography (HPLC) method. HPLC was carried out using a system consisting of a pump (L-6000, manufactured by Hitachi, Ltd., Japan), an autoinjector, a column (Cosmosil 5C18-A, manufactured by Nacalai Tesque, Inc., Japan; 4.6Ø×250 mm), and an electrochemical detector (ECD-100, manufactured by Eicom Corporation, Japan) under the following conditions.
In addition, the statistical analysis was carried out by Dunnett's multiple comparison test.
(§2) C57 black male mice (11-week-old) were used in the experiment. MPTP hydrochloride was dissolved in a physiological saline solution in a concentration of 3 mg/ml, and the resulting solution was intraperitoneally injected to the mice in a volume of 0.1 ml per 10 g of body weight, i.e., at a dose of 30 mg/kg, once a day for 8 days repetitively. […]
(§3) The striatum excised was homogenized with a 50-fold volume of 0.1 N formic acid:acetone (15:85) containing an internal standard substance (5-hydroxytriptophol; 20 ng/ml), and the mixture was centrifuged under cooling. A fixed amount of the supernatant was collected and evaporated to dryness under stream of nitrogen gas. Then, the resultant was dissolved in a 0.01 N acetic acid and centrifuged, and then the contents of various monoamine neurotransmitters and metabolites thereof in the supernatant were measured by HPLC being equipped with an electrochemical detector.
MPTP hydrochloride was intraperitoneally administered to C57 black male mice (11-week-old) at a dose of 30 mg/kg once a day for 8 days repetitively in the same manner as in Experiment 1. The test drugs, i.e., antiepileptic agents, were suspended in a 0.5% aqueous tragacanth solution, and the resultant was orally administered to the mice in a volume of 0.1 ml per 10 g of body weight 30 minutes prior to the MPTP administration for 8 days. […] The contents of dopamine and a metabolite thereof in the striatum were measured in the same manner as in Experiment 1. […] The dosages for each administration of various antiepileptic agents are shown below. […] Forsch. (Drug Res.), 30, 477 (1980) for other antiepileptic agents were employed, respectively.
The inhibitory rate was calculated from the values in the normal animal group, the vehicle-treated group and the test drug-treated group. The values in Table represent a mean value ± a standard error, and the marks * and ** mean that there is a significant difference from the value of the vehicle-treated group with p<0.05 and p<0.01, respectively.
The perpendicular lines in the figures represent standard errors, and the marks * and ** mean that there is a significant difference from the value of the vehicle-treated group with p<0.05 and p<0.01, respectively.

[2] = tested on: C57 black mice; conditions: MPTP hydrochloride 15 mg/kg s.c. once; cited from earlier work
[3] = tested on: C57 black male mice; assay: Preparation of animal model for Parkinson's disease: striatal monoamine neurotransmitters and metabolites after MPTP; format: in vivo, mouse; conditions: MPTP hydrochloride 30 mg/kg ip once a day for 8 days
Procedure: as §1, §2, §3
The changes in the contents of various neurotransmitters and metabolites thereof 24 hours after the last MPTP administration are shown in FIG. 1. The number of animals in each group is 8, and the perpendicular lines in the figures represent standard errors, and the mark ** means that there is a significant difference from the value of the control group (the group treated with a physiological saline solution) with p<0.01.

[4] = 14-days group (14 days after the last MPTP administration), in words (FIG. 2)
[5] = 24-hours group, in words (Table 1)
[6] = 24 hours after last administration (FIG. 1)
[7] = 100 mg/kg po for 8 days, 100 mg/kg
[8] = 100 mg/kg po for 8 days, listed as zonisamide, 100 mg/kg

## CC(=O)Nc1nnc(S(N)(=O)=O)s1 [AZA, Acetazolamide]
[1]; 100 mg/kg po for 8 days
  Inhibitory Rate (%) DA: −4.1%
  Inhibitory Rate (%) DOPAC: 1.2%
  DA (ng/g tissue): 1803 ± 428 ng/g tissue
  DOPAC (ng/g tissue): 138 ± 23 ng/g tissue

## NC(=O)N1c2ccccc2C=Cc2ccccc21 [CBZ, Carbamazepine]
[2]
  inhibitory effect on dopamine depletion induced by MPTP: does not show such effect
[1]; [4]
  inhibitory effect on the MPTP-induced reduction in the contents of dopamine and DOPAC in the striatum: did not show any significant inhibitory effect
[1]; [5]
  inhibitory effect on the MPTP-induced reduction in the contents of dopamine and DOPAC in the striatum: did not show any significant inhibitory effect
[1]; 20 mg/kg po for 8 days
  Inhibitory Rate (%) DA: 25.0%
  DA (ng/g tissue): 3087 ± 453 ng/g tissue
  DOPAC (ng/g tissue): 251 ± 36 ng/g tissue
[1]; 60 mg/kg po for 8 days
  Inhibitory Rate (%) DA: 20.8%
  Inhibitory Rate (%) DOPAC: 23.0%
  DA (ng/g tissue): 2894 ± 750 ng/g tissue
  DOPAC (ng/g tissue): 202 ± 52 ng/g tissue

## CN1C(=O)CN=C(c2ccccc2)c2cc(Cl)ccc21 [DZP, Diazepam]
[1]; 5 mg/kg po for 8 days
  Inhibitory Rate (%) DA: 24.3%
  Inhibitory Rate (%) DOPAC: 18.3%
  DA (ng/g tissue): 3356 ± 451 ng/g tissue
  DOPAC (ng/g tissue): 208 ± 28 ng/g tissue

## CCC1(C)CC(=O)NC1=O (centres unmarked) [ESM, Ethosuximide]
[1]; 600 mg/kg po for 8 days
  Inhibitory Rate (%) DA: −18.7%
  Inhibitory Rate (%) DOPAC: −12.9%
  DA (ng/g tissue): 1008 ± 182 ng/g tissue
  DOPAC (ng/g tissue): 80 ± 10 ng/g tissue

## Nc1nnc(-c2cccc(Cl)c2Cl)c(N)n1 [LTG, 3,5-diamino-6-(2,3-dichlorophenyl)-1,2,4-triazine]
[2]
  inhibitory effect on dopamine depletion induced by MPTP: show an inhibitory effect
[1]; 30 mg/kg po for 8 days
  Inhibitory Rate (%) DA: 51.6%
  Inhibitory Rate (%) DOPAC: 34.1%
  DA (ng/g tissue): 4844 ± 676** ng/g tissue
  DOPAC (ng/g tissue): 273 ± 31** ng/g tissue

## CN1CC=C(c2ccccc2)CC1 [MPTP, 1-methyl-4-phenyl-1,2,3,6-tetrahydropyridine]
[3]; [6]
  contents of dopamine (DA), homovanillic acid (HVA) and DOPAC in the striatum: significantly reduced
  contents of noradrenaline (NA), serotonin (5HT), MOPEG and 5HIAA in the striatum: never affected
[3]; 14 days after last administration (FIG. 2)
  reduction in the contents of dopamine and metabolites thereof in the striatum: irreversible

## CCC1(c2ccccc2)C(=O)NC(=O)NC1=O [PB, Phenobarbital]
[1]; 40 mg/kg po for 8 days
  Inhibitory Rate (%) DA: 23.5%
  Inhibitory Rate (%) DOPAC: 16.3%
  DA (ng/g tissue): 3310 ± 544 ng/g tissue
  DOPAC (ng/g tissue): 200 ± 32 ng/g tissue

## O=C1NC(=O)C(c2ccccc2)(c2ccccc2)N1 [PHT, Phenytoin]
[2]
  inhibitory effect on dopamine depletion induced by MPTP: show an inhibitory effect
[1]; 30 mg/kg po for 8 days
  Inhibitory Rate (%) DA: 37.4%
  Inhibitory Rate (%) DOPAC: 30.2%
  DA (ng/g tissue): 4073 ± 454* ng/g tissue
  DOPAC (ng/g tissue): 257 ± 30* ng/g tissue

## CCCC(CCC)C(=O)[O-].[Na+] [VPA, Sodium valproate]
[1]; 800 mg/kg po for 8 days
  Inhibitory Rate (%) DA: 17.5%
  Inhibitory Rate (%) DOPAC: 13.2%
  DA (ng/g tissue): 2984 ± 468 ng/g tissue
  DOPAC (ng/g tissue): 187 ± 29 ng/g tissue

## NS(=O)(=O)Cc1noc2ccccc12 [ZNS, 3-sulfamoylmethyl-1,2-benzisoxazole]
[1]; [4]
  inhibitory effect on the MPTP-induced reduction in the contents of dopamine and DOPAC in the striatum: dose-dependent inhibitory effect
[1]; [5]
  inhibitory effect on the MPTP-induced reduction in the contents of dopamine and DOPAC in the striatum: dose-dependent inhibitory effect
[1]; 10 mg/kg po for 8 days
  Inhibitory Rate (%) DA: 22.3%
  Inhibitory Rate (%) DOPAC: 29.8%
  DA (ng/g tissue): 3797 ± 201* ng/g tissue
  DOPAC (ng/g tissue): 221 ± 11* ng/g tissue
[1]; 30 mg/kg po for 8 days
  Inhibitory Rate (%) DA: 80.3%
  Inhibitory Rate (%) DOPAC: 82.1%
  DA (ng/g tissue): 7373 ± 685** ng/g tissue
  DOPAC (ng/g tissue): 370 ± 27** ng/g tissue
[1]; [7]
  Inhibitory Rate (%) DA: 97.2%
  Inhibitory Rate (%) DOPAC: 109.1%
[1]; [8]
  Inhibitory Rate (%) DA: ~100%
  Inhibitory Rate (%) DOPAC: ~100%
[1]; 100 mg/kg po for 8 days
  DA (ng/g tissue): 8434 ± 336** ng/g tissue
  DOPAC (ng/g tissue): 447 ± 24** ng/g tissue
